We go through five molecules from US20210318335A1, “BIOMARKERS, COMPOSITIONS, AND METHODS FOR DIAGNOSING AND TREATING SUBJECTS EXPOSED TO PROTEIN/HEPARIN COMPLEXES” (DUKE UNIVERSITY, priority 2018, published 2021).

In assay [1] the test system is complement activation by PF4/heparin complexes. Kind of assay: Antigen-C3c capture ELISA assay: complement activation by PF4/heparin in plasma. The format is biochemical, human. As to conditions: for effect of chelator on complement activation by PF4/heparin: 10 mM added to healthy donor plasma prior to PF4/heparin. Here is the method: Antigen-C3c capture ELISA assay and Specificity ELISA: Antigen-specific monoclonal antibodies (mouse anti human PF4/heparin; KKO or mouse anti-protamine/heparin; ADA at 2 μg/mL) were incubated overnight on a microtiter plate (in phosphate buffered saline, PBS) followed by washing and blocking with 1% bovine serum albumin (BSA) in PBS for 2 hours. […] Unless specified antigen concentrations were 25 μg/mL (PF4) and 0.25 U/mL (heparin) for KKO coated plates and 125 μg/mL (PRT) and 6 U/mL (heparin) for ADA coated plates. Next, plasma containing antigen fixed by complement activation fragments was added to the capture plate for 1 hr followed by serial washes. Complement-coated antigen was detected using a biotinylated anti-C3c antibody (recognizes C3 and all C3c-containing fragments of C3, including iC3b; Quidel Corporation, San Diego, Calif.) followed by colorimetric detection as previously described. […] IgM studies: Goat anti-human IgM (μ-chain specific) agarose beads were used to deplete IgM from plasma. Anti-IgM or control agarose beads were incubated with plasma and depleted plasma supernatant was analyzed in the antigen-C3c capture assay described above.
Background: An ELISA detects its analyte on a solid surface through an enzyme-linked reagent.

The test system of assay [2] is B cells. Description: Flow cytometry of whole blood: binding of PF4/heparin, C3c and IgM to B cells. It is filed as cell-based, human. As to conditions: whole blood incubated with PF4 25 μg/mL + heparin 0.25 U/mL; excess heparin wash. Background: In flow cytometry, cells or beads pass a laser one at a time.
Experimental: Flow cytometry studies: Flow-based studies of antigen, complement, or IgM binding to B cells were performed as described previously (Khandelwal S, et al. (2016) Blood, 128(14):1789-1799). Patient samples were processed without addition of exogenous antigen. Cells were analyzed using a BD FACS Canto Flow cytometer (BD Biosciences, Franklin Lakes, N.J.). Signals from a minimum of 10,000 cells were acquired from each sample. Analyses were performed using FCS express software (Version 5 Flow Research Edition; De Novo Software).
To examine if IgM co-localizes with PF4/heparin antigen and complement on B cells, surface IgM on B cells before and after addition of antigen were examined.

As to `O=C(O)CN(CCOCCOCCN(CC(=O)O)CC(=O)O)CC(=O)O` [EGTA, ethylene glycol-bis (β-aminoethyl ether)-N,N,N′,N′-tetraacetic acid], in assay [1], the “effect of chelator on complement activation by PF4/heparin” value is listed as “eliminated complement activation”.
On to heparin, for which the “effect of excess heparin on PF4/heparin and IgM fluorescence on B cells” value in assay [2] is “reduced PF4/heparin and IgM fluorescence to baseline”.
Consider `O=C(O)CN(CCN(CC(=O)O)CC(=O)O)CC(=O)O` [EDTA, ethylenediaminetetraacetic acid], for which the “effect of chelator on complement activation by PF4/heparin” value in assay [1] is “eliminated complement activation”.
Regarding `[Cl-].[Cl-].[Mg+2]` [Mg^2+, Magnesium chloride], the “effect of Mg2+ supplementation on complement activation by PF4/heparin” value in assay [1] (EGTA-treated plasma (10 mM EGTA), MgCl2 10 mM) is listed as “did not rescue complement activation”.

B1: C1 esterase inhibitor: C1-inhibitor, classical pathway complement inhibitor added to plasma at 10 and 20 IU/mL (protein, UniProt P05155 23-500, looked up)
Plasma protease C1 inhibitor: NPNATSSSSQDPESLQDRGEGKVATTVISKMLFVEPILEVSSLPTTNSTTNSATKITANTTDEPTTQPTTEPTTQPTIQPTQPTTQLPTDSPTQPTTGSFCPGPVTLCSDLESHSTEAVLGDALVDFSLKLYHAFSAMKKVETNMAFSPFSIASLLTQVLLGAGENTKTNLESILSYPKDFTCVHQALKGFTTKGVTSVSQIFHSPDLAIRDTFVNASRTLYSSSPRVLSNNSDANLELINTWVAKNTNNKISRLLDSLPSDTRLVLLNAIYLSAKWKTTFDPKKTRMEPFHFKNSVIKVPMMNSKKYPVAHFIDQTLKAKVGQLQLSHNLSLVILVPQNLKHRLEDMEQALSPSVFKAIMEKLEMSKFQPTLLTLPRIKVTTSQDMLSIMEKLEFFDFSYDLNLCGLTEDPDLQVSAMQHQTVLELTETGVEAAAASAISVARTLLVFEVQQPFLFVLWDQQHKFPVFMGRVYDPRA
Regarding B1, the “effect of C1-inhibitor on complement activation by PF4/heparin” value in assay [1] (10 and 20 IU/mL, healthy donor plasma pre-incubated before PF4/heparin) was “complement activation was reduced”.
